For six molecules, MIC results are on record in ChEMBL document CHEMBL4673348, “Penipyranicins A-C: Antibacterial Methylpyran Polyketides from a Hydrothermal Spring Sediment Penicillium sp” (2020).

≈ marks a conversion by molar mass, not a printed value.

Common to all, as to type: functional
The test system of one assay is Pseudomonas aeruginosa. The experiment in a line: Antibacterial activity against Pseudomonas aeruginosa NR-117678.1 assessed as reduction in cell viability after 24 hrs by microdilution method. Background: In broth dilution the organism is exposed to a series of concentrations in liquid medium.
The next assay deals with Staphylococcus aureus. The experiment in a line: Antibacterial activity against Staphylococcus aureus CP011526.1 assessed as reduction in cell viability after 24 hrs by microdilution method.
The next assay concerns Enterobacter hormaechei. The assay is described as follows: Antibacterial activity against Enterobacter xiangfangensis CP017183.1 assessed as reduction in cell viability after 24 hrs by microdilution method. The settings on record: subsp. xiangfangensis CP017183.1.
The nature of assay [1]: Antibacterial activity against Escherichia fergusonii CU928158.2 assessed as reduction in cell viability after 24 hrs by microdilution method.
The test system of the next assay is Bacillus licheniformis. The assay is described as follows: Antibacterial activity against Bacillus licheniformis KX785171.1 assessed as reduction in cell viability after 24 hrs by microdilution method.

As usually defined, the MIC is the smallest concentration in the dilution series that meets the test's criterion for growth inhibition. For `COc1cc(O)cc(C2=COC(C(=O)O)=C[C@H]2C)c1`, the MIC is 18.4 µg/mL (≈ 70.2 µM) in the assay with Pseudomonas aeruginosa; greater than 25 µg/mL with Staphylococcus aureus; 15.8 µg/mL (≈ 60.2 µM) with Enterobacter hormaechei; 13.2 µg/mL (≈ 50.3 µM) in assay [1]; 21.6 µg/mL (≈ 82.4 µM) in the assay with Bacillus licheniformis.

For the molecule `COc1cc(O)c2c3c(c(C)cc(C(=O)O)c13)[C@H](OC)OC2=O`, the MIC was 4.7 µg/mL (≈ 14.8 µM) in the assay with Pseudomonas aeruginosa; 6.3 µg/mL (≈ 19.8 µM) with Staphylococcus aureus; 7.8 µg/mL (≈ 24.5 µM) with Enterobacter hormaechei; 11.2 µg/mL (≈ 35.2 µM) in assay [1]; 3.8 µg/mL (≈ 11.9 µM) in the assay on Bacillus licheniformis.

Regarding `COc1cc(O)c(C(=O)O)c(C2=COC(C(=O)O)=C[C@H]2C)c1`, the minimum inhibitory concentration (MIC) was 5.2 µg/mL (≈ 17 µM) in the assay with Pseudomonas aeruginosa; 10.3 µg/mL (≈ 33.6 µM) in the assay with Staphylococcus aureus; 3.7 µg/mL (≈ 12.1 µM) with Enterobacter hormaechei; 7.8 µg/mL (≈ 25.5 µM) in assay [1]; 9.7 µg/mL (≈ 31.7 µM) with Bacillus licheniformis.

With `COc1cc(O)c(C(=O)O)c(C2=COC(C(=O)O)=C[C@H]2C)c1C(=O)O`, the MIC in the assay on Pseudomonas aeruginosa is 1.4 µg/mL (≈ 4 µM); in the assay on Staphylococcus aureus it was 6.8 µg/mL (≈ 19.4 µM); in the assay on Enterobacter hormaechei it was 0.9 µg/mL (≈ 2.57 µM); in assay [1], 2.7 µg/mL (≈ 7.71 µM); in the assay on Bacillus licheniformis, 8.4 µg/mL (≈ 24 µM).

Turning to `NCC[C@H](O)C(=O)N[C@@H]1C[C@H](N)[C@@H](O[C@H]2O[C@H](CN)[C@@H](O)[C@H](O)[C@H]2O)[C@H](O)[C@H]1O[C@H]1O[C@H](CO)[C@@H](O)[C@H](N)[C@H]1O` [AMIKACIN], the MIC in the assay on Pseudomonas aeruginosa came out at 0.8 µg/mL (≈ 1.37 µM); with Staphylococcus aureus, 0.5 µg/mL (≈ 0.854 µM); with Enterobacter hormaechei it was 0.2 µg/mL (≈ 0.342 µM); in assay [1], 0.4 µg/mL (≈ 0.683 µM); in the assay with Bacillus licheniformis it was 0.3 µg/mL (≈ 0.512 µM).

In the case of `O=c1cc(CO)occ1O` [KOJIC ACID], the MIC amounted to 2.9 µg/mL (≈ 20.4 µM) in the assay on Pseudomonas aeruginosa; 9.5 µg/mL (≈ 66.8 µM) with Staphylococcus aureus; 1.6 µg/mL (≈ 11.3 µM) in the assay on Enterobacter hormaechei; 3.5 µg/mL (≈ 24.6 µM) in assay [1]; 14.8 µg/mL (≈ 104 µM) in the assay on Bacillus licheniformis.
